Article PMC5349910, “Discovery of BPR1K871, a quinazoline based, multi-kinase inhibitor for the treatment of AML and solid tumors: Rational design, synthesis, in vitro and in vivo evaluation” (Oncotarget, 2016)

How the values were obtained:
U937 cells = assay: Anti-proliferative activity, U937; assay type: cell-based; conditions: Homo sapiens, U-937; AML-FLT3-negative; supplement values ± SEM; read-out: U937 EC50
CYP 3A4 = CYP 3A4 (Homo sapiens, UniProt P08684); assay: CYP inhibition assay, CYP 3A4; assay type: in vitro ADME
[1] = In vivo pharmacokinetics evaluation in rats; parameters: species or system Male Sprague-Dawley rats; conditions: rat
Experimental: This study was approved by Institutional Animal Care and Use Committee of National Health Research Institutes. A solution of test compound (10 mg/mL) was prepared by dissolving appropriate amount of compound in a mixture of DMA/PEG400 (20/80, v/v). Male Sprague-Dawley rats, weighing 250–350 g each (8–10 weeks old), were obtained from BioLASCO, Ilan, Taiwan. […] The volume of dosing solution administered was adjusted according to the body weight recorded before dose administration. At 0 (prior to dosing), 2, 5, 15, and 30 min and at 1, 2, 4, 6, 8, and 24 h after dosing, a blood sample (∼150 μL) was collected from each animal via the jugular-vein cannula and stored in ice (0–4°C). Plasma was separated from the blood by centrifugation (14000 g for 15 min at 4°C in a Beckman model AllegraTM 6R centrifuge) and stored in a freezer (–60°C). All samples were analyzed for the test compound by LC-MS/MS (ABI3000). Data were acquired via multiple reactions monitoring. Plasma concentration data were analyzed with standard noncompartmental method with WinNonLin software program (version 1.1, Pharsight Corporation, CA).

ABL1^T315I = ABL1^T315I (Homo sapiens, UniProt P00519, T315I); assay: KINOMEScan, ABL1 T315I; conditions: read-out: ABL1^T315I % control
CYP 2C19 = CYP 2C19 (Homo sapiens, UniProt P33261); assay: CYP inhibition assay, CYP 2C19; assay type: in vitro ADME
[2] = test system: AURKA phosphorylation (pAURKA at residue T288); assay: Western blot, AURKA phosphorylation in MV4-11 cells; assay type: cell-based, human; conditions: nocodazole 16 h then drug 2.0 h
Experimental: In order to understand the mode of action of BPR1K871, mechanistic studies in MV4-11 cell line using western blot analysis was carried out. MV4-11 cells were incubated with BPR1K871 in a dose-dependent manner for 2.0 h. Cell lysates were prepared and analyzed by immunoblotting for both FLT3 phosphorylation (pFLT3 at residue Y591) and AURKA phosphorylation (pAURKA at residue T288).
Western blot analysis was conducted as previously described. Primary antibodies against phospho-FLT3 (Tyr591) (#3461) and phospho-AURKA (Thr288) (#3079) were purchased from Cell Signaling Technology. The anti-FLT3 antibody (sc-480) and anti-AURKA antibody (07–648) were purchased from Santa Cruz Biotechnology and Upstate, respectively. The anti-β-actin rabbit polyclonal antibody (GTX110564) was purchased from GeneTex (CA, USA). The secondary antibodies horseradish peroxidase (HRP)-linked goat anti-rabbit IgG (111-035-003) were purchased from Jackson Immuno (West Grove, PA, USA). MV4-11 cells were incubated with compound BPR1K871 for 2.0 h at the indicated concentrations. Cell lysates were prepared and analyzed by immunoblotting. For AURKA analysis, the cell lysates were obtained from MV4-11 cells incubated for 16 h with 40 ngmL^-1 nocodazole, followed by drug treatment for 2.0 h at the indicated concentrations.

RS4-11 cells = assay: Anti-proliferative activity, RS4-11; assay type: cell-based; conditions: Homo sapiens, RS4-11; ALL-wt-FLT3 (homozygous); supplement values ± SEM; read-out: RS4-11 EC50
CL-97 cells = assay: Anti-proliferative activity, CL-97; assay type: cell-based, human; conditions: CL97; Human Lung Cancer; supplement values ± SEM; read-out: CL-97 EC50
KIT^L576P = KIT^L576P (Homo sapiens, UniProt P10721, L576P); assay: KINOMEScan, KIT L576P; conditions: read-out: KIT^L576P % control
MOLM-13 cells = assay: MTS cell viability assay, MOLM-13; assay type: cell-based, human; conditions: Homo sapiens, MOLM-13, 72 h, MTS, 72 h; AML-FLT3-ITD (heterozygous); supplement values ± SEM; read-out: MOLM-13 EC50
Experimental: The MTS cell viability assay was conducted as previously described. The MOLM-13 human leukemia cell line was obtained from the German Resource Centre for Biological Material (DSMZ, Braunschweig, Germany); the MV4-11 cell line was purchased from the American Type Culture Collection (ATCC, Manassas, VA, USA). […] To determine cell viability after drug treatment, assay for MOLM-13 and MV4-11 was performed by seeding 10000 cells per well in a 96-well culture plate. […] After 16 h, cells were then treated with vehicle or various concentrations of compound in medium for 72 h. Viable cells were quantified using the MTS method (Promega, Madison, WI, USA) according to the manufacturer's recommended protocol. Results were determined by measuring the absorbance at 490 nm using a plate reader (Victor2; PerkinElmer, Shelton, CT, USA).

ABL1^H396P = ABL1^H396P (Homo sapiens, UniProt P00519, H396P); assay: KINOMEScan, ABL1 H396P; conditions: read-out: ABL1^H396P % control
[3] = male, Sprague-Dawley, plasma, iv, 5 mg/kg

Sequence of KIT^L576P (P10721 26-976 L576P): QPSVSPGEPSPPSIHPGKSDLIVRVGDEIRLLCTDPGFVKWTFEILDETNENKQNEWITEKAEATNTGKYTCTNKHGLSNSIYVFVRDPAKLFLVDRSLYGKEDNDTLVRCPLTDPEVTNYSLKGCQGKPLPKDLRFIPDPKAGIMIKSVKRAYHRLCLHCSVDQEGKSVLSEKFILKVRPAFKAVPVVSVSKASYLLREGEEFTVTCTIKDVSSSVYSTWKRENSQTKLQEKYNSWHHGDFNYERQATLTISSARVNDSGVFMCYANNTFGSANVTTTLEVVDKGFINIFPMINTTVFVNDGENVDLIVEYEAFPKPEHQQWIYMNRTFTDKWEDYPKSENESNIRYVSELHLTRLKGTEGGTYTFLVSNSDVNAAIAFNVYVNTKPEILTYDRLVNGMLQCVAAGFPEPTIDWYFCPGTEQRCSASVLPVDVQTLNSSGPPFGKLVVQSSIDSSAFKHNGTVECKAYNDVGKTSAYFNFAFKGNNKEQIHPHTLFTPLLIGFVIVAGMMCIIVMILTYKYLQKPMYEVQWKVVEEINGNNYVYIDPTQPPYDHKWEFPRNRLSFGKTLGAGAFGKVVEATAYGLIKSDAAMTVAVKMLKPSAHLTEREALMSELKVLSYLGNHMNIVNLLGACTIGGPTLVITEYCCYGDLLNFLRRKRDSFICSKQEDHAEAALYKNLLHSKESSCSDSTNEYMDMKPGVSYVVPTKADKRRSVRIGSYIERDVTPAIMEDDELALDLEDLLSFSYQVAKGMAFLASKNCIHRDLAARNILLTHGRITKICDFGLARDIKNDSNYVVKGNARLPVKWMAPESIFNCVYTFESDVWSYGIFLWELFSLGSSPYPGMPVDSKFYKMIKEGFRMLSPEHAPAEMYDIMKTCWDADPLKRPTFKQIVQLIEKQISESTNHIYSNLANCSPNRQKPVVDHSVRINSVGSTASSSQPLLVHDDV
Sequence of CYP 3A4 (P08684 whole entry): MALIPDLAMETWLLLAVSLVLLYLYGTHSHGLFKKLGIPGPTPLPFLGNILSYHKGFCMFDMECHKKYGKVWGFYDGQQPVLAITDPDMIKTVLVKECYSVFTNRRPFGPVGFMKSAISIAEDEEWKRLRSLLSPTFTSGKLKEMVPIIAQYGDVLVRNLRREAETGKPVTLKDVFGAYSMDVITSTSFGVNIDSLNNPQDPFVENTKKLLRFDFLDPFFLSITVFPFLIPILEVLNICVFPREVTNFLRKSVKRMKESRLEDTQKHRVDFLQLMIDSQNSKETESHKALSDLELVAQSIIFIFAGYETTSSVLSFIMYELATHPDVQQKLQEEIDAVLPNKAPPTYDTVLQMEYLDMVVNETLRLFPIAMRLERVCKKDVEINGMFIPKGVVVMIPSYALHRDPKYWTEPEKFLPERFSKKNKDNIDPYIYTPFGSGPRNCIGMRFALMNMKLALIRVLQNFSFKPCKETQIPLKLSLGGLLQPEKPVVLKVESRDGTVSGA
Sequence of CYP 2C19 (P33261 whole entry): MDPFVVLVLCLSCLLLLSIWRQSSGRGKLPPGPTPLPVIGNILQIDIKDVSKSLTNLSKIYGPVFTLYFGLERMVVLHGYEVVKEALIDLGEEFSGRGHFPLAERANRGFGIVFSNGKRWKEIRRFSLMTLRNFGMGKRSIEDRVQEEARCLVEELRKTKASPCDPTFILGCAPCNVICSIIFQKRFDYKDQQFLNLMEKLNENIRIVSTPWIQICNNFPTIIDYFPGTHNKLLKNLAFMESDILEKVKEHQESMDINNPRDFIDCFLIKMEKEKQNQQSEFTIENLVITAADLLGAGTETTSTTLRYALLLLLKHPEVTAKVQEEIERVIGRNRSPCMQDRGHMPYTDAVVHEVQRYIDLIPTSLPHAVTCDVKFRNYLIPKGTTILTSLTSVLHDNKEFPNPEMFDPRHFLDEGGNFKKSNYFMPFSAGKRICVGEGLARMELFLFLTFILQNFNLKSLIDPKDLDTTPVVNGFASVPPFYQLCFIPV
Text for Mia-PaCa2 tumors: For this, COLO205 and Mia-PaCa2 xenograft models were established through inoculating nude mice subcutaneously with corresponding cancer cells. When the tumor size reached approximately 200 mm^3, the hydrochloride salt of BPR1K871 dissolved in the formulation was intravenously administered to suppress the growth of the subcutaneously xenografted tumors.
Nude mice (n = 8–9 per group) were inoculated subcutaneously with Mia-PaCa2 (1 × 10^6 per flank) or COLO205 cells (1 × 10^6 per flank). When the tumor size reached ∼200 mm^3, animals were grouped and treated with BPR1K871 at 20 mg/kg dose in a 2-week treatment period as indicated. […] Tumor volumes were measured and calculated with the formula length × width^2/2 after initiation of treatments. Tumor size and animal body weight were measured twice a week after tumor cell inoculation. The significant difference between drug treatment and vehicle control were analyzed using one-way ANOVA and Student-Newman-Keuls test. The level of statistical significance was set at P<0.05.

SMILES: CN(C)CCCOc1ccc2c(NCCc3cnc(NC(=O)Nc4cccc(Cl)c4)s3)ncnc2c1 [BPR1K871, 1-(3-Chlorophenyl)-3-(5-(2-((7-(3-(dimethylamino)propoxy)quinazolin-4-yl)amino)ethyl)thiazol-2-yl)urea]
- EC50 (U937 cells): 8050 nM
- IC50 (CYP 3A4): > 4000 nM
- AUC(0-inf) [1, 3]: 1460 ng·h/mL
- clearance [1, 3]: 60.4 mL/min/kg
- half-life [1, 3]: 23.5 h
- Vd ([1]; male, Sprague-Dawley, plasma, iv, 5 mg/kg, read-out: Vss): 34.2 L/kg
- oral bioavailability [1]: without oral bioavailability
- AUC (0-∞) ([1]; po, 20 mg/kg): not detectable
- Cmax ([1]; po, 20 mg/kg): not detectable
- Tmax ([1]; po, 20 mg/kg): not detectable
- t1/2 ([1]; po, 20 mg/kg): not detectable
- remaining binding at 1 µM (ABL1^T315I): < 4.4%
- IC50 (CYP 2C19): > 4000 nM
- concentration that completely inhibited formation of pAURKA (Thr288) [2]: 100 nM
- TGI ± SD (Mia-PaCa2 tumors; Mia-PaCa2, 20 mg/kg iv once a day, days 1–5 and 8–12, day 29, n = 9): 91 ± 10%
- body weight loss (Mia-PaCa2 tumors; Mia-PaCa2 model, 20 mg/kg iv): ≤ 15%
- mortality during the study (Mia-PaCa2 tumors; Mia-PaCa2 model, 20 mg/kg iv): no mice died
- EC50 (RS4-11 cells): 11 nM
- EC50 (CL-97 cells): 2890 nM
- remaining binding at 1 µM (KIT^L576P): < 4%
- EC50 (MOLM-13 cells): ~5 nM
- remaining binding at 1 µM (ABL1^H396P): < 4.4%
